Measurements: patent US7642287B2, “Statin pharmaceutical compositions and related methods of treatment” (Transform Pharmaceuticals, Inc., priority 2004, dated 2010)
“And” between values parts separate entries of the source, which are not always exact repeats. Identical values can stand only once. Counter-ions that a name gives are not always drawn. Like-named read-outs stand apart in the source and are kept apart here. One block for each molecule: values may come before it.

Legend:
[1] = Gravimetric solubility in deionized water at 23 degrees C; type: physicochemical; settings: listed as calcium salt of fluvastatin
Description: Solubility measurements of the sodium salt and of the calcium salt of fluvastatin were acquired in water at 23 degrees C. Solubility was measured gravimetrically in deionized water.

[2] = Pharmacokinetic two-way cross-over study in fasted beagle dogs (plasma pravastatin, LC/MS); type: in vivo
Description: A two-way cross-over experiment was completed with six fasted beagle dogs to compare the pharmacokinetic parameters of pravastatin calcium salt with pravastatin sodium salt. The pravastatin sodium salt was acquired from PRAVACHOL® tablets. The pravastatin calcium salt was acquired via the method described in Example 1. The pravastatin calcium salt dosage form administered to the dogs consisted of 11.0 mg pravastatin calcium salt (equivalent to 10 mg pravastatin acid) and 744 mg Ropufa 75 ethyl esters of omega-3 fatty acids in a soft gelatin capsule shell. […] The mean dose of pravastatin free acid administered as PRAVACHOL® was 0.85 mg/kg and the mean dose of pravastatin free acid administered as pravastatin calcium salt was 0.95 mg/kg. Following administration, plasma samples were collected pre-dose and then at 0.25, 0.5, 1, 1.5, 2, 3, 4, 6, 8, 12, and 24 hours post-dose. Plasma samples were analyzed for pravastatin concentration using an LC/MS method.

[3] = Aqueous solubility via UV absorption; settings: water, via UV detection, 20-25 degrees C.
Description: The term “aqueous solubility” refers to the solubility as measured in deionized water at about 25 degrees C., unless otherwise specified.
A calibration curve was constructed by preparing known concentrations of API in absolute ethanol in volumetric flasks. At each concentration, 200 microliters of the solution was transferred into a 96-well clear bottom UV plate. The sample absorbance was measured at 280 nm (unless otherwise noted) in a UV spectrophotometer.
To measure the API concentration in the sample, a small aliquot was taken and diluted (typically 2000-fold) with absolute ethanol in a volumetric flask to a final approximate concentration of less than 100 micrograms/mL. The absorbance at 280 nm (unless otherwise noted) is measured and the solubility is calculated based on the calibration curve.

[4] = 26 week stability of pravastatin salts suspended in E463808 omega-3 oil (HPLC); type: physicochemical
Description: Several salts of pravastatin were suspended in E463808 omega-3 oil and placed in either capped glass vials or sealed gelatin capsules. […] were used at 25 degrees C. while glass vials were used at 25, 40, and 60 degrees C. The suspensions of salt in oil were measured periodically for 26 weeks. HPLC was used to measure degradation of the pravastatin salts.

[5] = Dynamic Vapor Sorption (DVS) moisture sorption isotherm; type: physicochemical
Source text: Dynamic Vapor Sorption (DVS) data were also acquired on both the pravastatin calcium salt and the pravastatin sodium salt. […] This is consistent with an amorphous compound. Hysteresis is observed in the desorption cycle. […] Significant hysteresis is observed in the desorption cycle.

[6] = type: physicochemical
Description: Several salts of pravastatin were suspended in 87:13 E681010:ethanol mixtures and placed in capped glass vials. Each suspension of pravastatin calcium, pravastatin magnesium, pravastatin sodium, or pravastatin zinc in 87:13 E681010:ethanol was measured periodically for 12 weeks. HPLC was used to measure degradation of the pravastatin salts.

[7] = beagle, dog, plasma, po, 0.95 mg/kg, Mean of six fasted beagle dogs, mean dose as free acid 0.95 mg/kg (calcium salt softgel), 0.85 mg/kg (PRAVACHOL)
[8] = individual dogs, oral, fasted, mean dose as free acid 0.95 mg/kg (calcium salt softgel), 0.85 mg/kg (PRAVACHOL), calcium salt
[9] = suspension in E463808, capped glass vials, 8 weeks

Molecule: CC(C)n1c(/C=C/C(O)CC(O)CC(=O)O)c(-c2ccc(F)cc2)c2ccccc21 (centres unmarked) [fluvastatin calcium salt]
aqueous solubility [1]: less than or equal to 0.275 mg/mL

Molecule: CCC(C)C(=O)OC1CC(O)C=C2C=CC(C)C(CCC(O)CC(O)CC(=O)[O-])C21.CCC(C)C(=O)OC1CC(O)C=C2C=CC(C)C(CCC(O)CC(O)CC(=O)[O-])C21.[Mg+2] (centres unmarked) [pravastatin magnesium salt (habit A), pravastatin magnesium salt]
aqueous solubility [3]: 14.22 mg/mL

Molecule: CCC(C)C(=O)OC1CC(O)C=C2C=CC(C)C(CCC(O)CC(O)CC(=O)[O-])C21.CCC(C)C(=O)OC1CC(O)C=C2C=CC(C)C(CCC(O)CC(O)CC(=O)[O-])C21.[Mg+2] (centres unmarked) [pravastatin magnesium salt (habit B), pravastatin magnesium salt]
aqueous solubility [3]: 16.12 mg/mL

Molecule: pravastatin magnesium salt
aqueous solubility [3]: 17.24 mg/mL

Second part, led by results:

bioavailability ([2]; beagle, dog, plasma, po, 0.95 mg/kg, Mean of six dogs, relative to PRAVACHOL AUCinf, dose-normalized): 121%
AUC(0-inf) [2, 7]: 441 ng·h/mL
AUC(0-t) [2, 7]: 432 ng·h/mL
half-life [2, 7]: 2.35 h
Cmax ([2]; beagle, dog, plasma, po, 0.95 mg/kg, Mean of six fasted beagle dogs, oral, mean dose as free acid 0.95 mg/kg (calcium salt softgel), 0.85 mg/kg (PRAVACHOL), read-out: Cmax): 141 ng/mL
Tmax ([2]; beagle, dog, plasma, po, 0.95 mg/kg, Mean of six fasted beagle dogs, oral, mean dose as free acid 0.95 mg/kg (calcium salt softgel), 0.85 mg/kg (PRAVACHOL), read-out: Tmax): 0.71 h
AUC(0-t) ([2]; beagle, dog, plasma, po, 0.95 mg/kg, individual dogs, fasted, mean dose as free acid 0.95 mg/kg (calcium salt in Ropufa 75 omega-3 ethyl esters softgel), 0.85 mg/kg (PRAVACHOL)): 488 ng·h/mL
AUC(0-inf) ([2]; beagle, dog, plasma, po, 0.95 mg/kg, individual dogs, fasted, mean dose as free acid 0.95 mg/kg (calcium salt softgel), 0.85 mg/kg (PRAVACHOL)): 494 ng·h/mL
AUC values compared with the PRAVACHOL tablet ([2]; fasted beagle dogs, oral): slightly higher
Cmax values compared with the PRAVACHOL tablet ([2]; fasted beagle dogs, oral): slightly higher
Tmax values compared between the formulations ([2]; fasted beagle dogs, oral): comparable
Tmax [2, 8]: 1 h and 0.5 h and 0.25 h
aqueous solubility ([3]; listed as calcium salt of pravastatin, calcium salt): 17 to 20 mg/mL
stability in suspension of omega-3 oil relative to other pravastatin salts (sodium, potassium) ([4]; summary statement referring to the Exemplification): higher stability
degradation at 60 degrees C. vs potassium salt at 40 degrees C. [4, 9]: significantly less degradation
degradation at 60 degrees C. vs sodium salt at 40 degrees C. [4, 9]: similar
degradation vs sodium or potassium salt at a given temperature ([4]; suspension in E463808, capped glass vials, 40 and 60 degrees C.): degrade substantially less
degradation compared with all salts in gelcap or vial ([4]; suspension in E463808, vial, 25 degrees C., 26 weeks): degrade the least
Molecule: CC[C@H](C)C(=O)O[C@H]1C[C@H](O)C=C2C=C[C@H](C)[C@H](CC[C@@H](O)C[C@@H](O)CC(=O)O)[C@H]21 [pravastatin calcium salt]
AUC0–t ([2]; individual dogs, oral, fasted, mean dose as free acid 0.95 mg/kg (calcium salt in Ropufa 75 omega-3 ethyl esters softgel), 0.85 mg/kg (PRAVACHOL), calcium salt): 438.55 ng·h/mL and 505.30 ng·h/mL and 380.68 ng·h/mL and 512.94 ng·h/mL and 264.11 ng·h/mL
AUCinf [2, 8]: 453.69 ng·h/mL and 515.14 ng·h/mL and 396.20 ng·h/mL and 518.11 ng·h/mL and 268.01 ng·h/mL
Cmax [2, 8]: 182 ng/mL and 131 ng/mL and 166 ng/mL and 99.0 ng/mL and 87.2 ng/mL
t1/2 [2, 8]: 1.67 h and 2.5 h and 1.89 h and 2.76 h and 3.44 h and 1.85 h

aqueous solubility ([3]; listed as sodium salt of pravastatin, sodium salt): greater than 300 mg/mL
hygroscopicity compared with the calcium salt ([5]; DVS): greater hygroscopicity
relative humidity above which adsorbed water increased significantly ([5]; DVS sorp-desorp cycle): about 54 percent RH
Molecule: CC[C@H](C)C(=O)O[C@H]1C[C@H](O)C=C2C=C[C@H](C)[C@H](CC[C@@H](O)C[C@@H](O)CC(=O)O)[C@H]21 [pravastatin sodium salt]

degradation to the lactone (percent lactone) [6]: about 3%
stability in suspension of omega-3 oil and an alcohol relative to other pravastatin salts [6]: higher stability
moisture sorption behaviour (DVS isotherm) ([5]; 25 degrees C.): gradual increase in moisture sorption
Molecule: CC[C@H](C)C(=O)O[C@H]1C[C@H](O)C=C2C=C[C@H](C)[C@H](CC[C@@H](O)C[C@@H](O)CC(=O)O)[C@H]21.[Zn] [pravastatin zinc salt]
